For one assay, the target named is TDP-43 aggregates (Homo sapiens, UniProt Q13148). Description: Classical autoradiography in brain sections from patients with FTD. It is filed as binding. The settings on record: for Displacement on FTLD-TDP type A and B compared to non-demented control / Specific binding in FTLD-TDP type A compared to control: classical autoradiography; for cARG displacement on FTLD-TDP Type A case / cARG displacement on FTLD-TDP Type B case / cARG displacement on non-demented control: total binding divided by non-specific binding, grey matter, self-block with cold compound; for Specific binding in FTLD-TDP type A compared to control: one-way ANOVA with Tukey's correction. As to the method:
All tissues were collected from donors for or from whom a written informed consent for a brain autopsy and the use of the material and clinical information for research purposes had been obtained by the respective brain banks. All samples were anonymized and coded. Frozen brain tissue blocks with confirmed TDP-43 pathology upon autopsy were processed using a cryotome to generate sections of 10 μm in thickness and mounted on glass slides. Sections were kept at −80° C. until use.
Brain sections were fixed for 15 minutes at 4° C. with 4% formaldehyde on ice and washed three times for eight minutes with 1×PBS at RT. Sections were blocked in assay buffer for 30 minutes (50 mM Tris-HCl, 0.9% NaCl+0.1% BSA). Cold test compound (Compound 1, Compound 8 or Compound 17) was diluted in assay buffer to 4 μM and applied on half of the sections for 40 minutes at RT to determine non-specific binding. The remaining half of the sections were only incubated with assay buffer (total binding). Following this incubation, an equal volume of the corresponding tritiated compound (i.e. [^3H]-Compound 1, [^3H]-Compound 8 or [^3H]-Compound 17, respectively), diluted to 20 nM (for [^3H]-Compound 1 and [^3H]-Compound 8) or 10 nM ([^3H]-Compound 17) or increasing concentration from 0.1 to 200 nM (for [^3H]-Compound 1 and [^3H]-Compound 17), was added on sections and incubated for 2 hours at RT and then washed as follows: once in ice-cold 50 mM Tris-HCl pH 7.4 buffer for one minute, twice in ice-cold PBS for one minute, once in ice-cold 50 mM Tris-HCl pH 7.4 buffer for one minute and finally rinsed briefly in ice-cold distilled water.
Sections were subsequently dried under a stream of air and mounted with a copper-based adhesive strip. Bound radioactivity was quantified by exposing the slides in a real-time autoradiography system (Beaquant™ AI4R) for 2 hours, with measurement settings configured for tritium. Beavacq software (AI4R) was used to acquire the image which was subsequently quantified using Beamage image analysis software (AI4R). Specific binding (non-specific binding subtracted from total) and displacement (total binding divided by non-specific) were calculated. Bar graphs were generated using GraphPad Prism. For Kd determination on brain sections, the specific binding data were fitted with a non-linear regression analysis using a one-site specific binding model in GraphPad Prism.

Assay [1] relates to AD brain-derived Tau PHF aggregates. Description: Micro-radiobinding direct binding on AD brain-derived Tau PHF. Also on record: species or system human. The conditions noted are these: tritiated compound 0.6 to 200 nM. As to the method:
The enrichment procedure was modified from Jicha et al, 1997 and Rostagno and Ghiso, 2009. Briefly, around 15 g of the AD human brain were thawed on ice and homogenized with homogenization buffer (3 ml per gram of tissue) (0.75 M NaCl in RAB buffer (100 mM 2-(N-morpholino)ethanesulfonic acid (MES), 1 mM EGTA, 0.5 mM MgSO4, 2 mM DTT, pH 6.8) supplemented with protease inhibitors (Complete; Roche 693124001)) in a glass Dounce homogenizer. […]
PD brain-derived a-synuclein aggregates and AD brain-derived Tau PHF aggregates were spotted onto microarray slides. […] Quantification of signal was performed by using the image analysis software Beamage (ai4R). Non-specific signal was determined with an excess of non-radiolabelled compound (2 μM) and specific binding was calculated by subtracting the non-specific signal from the total signal. Competition was calculated as percentage, where 0% was defined as the specific binding in the presence of vehicle and 100% as the values obtained in the presence of excess of the non-radiolabelled a-syn reference compound. Ki values were calculated in GraphPad Prism7 by applying a nonlinear regression curve fit using a one site, specific binding model. […]

TDP-43 aggregates, sequence (Q13148 whole entry): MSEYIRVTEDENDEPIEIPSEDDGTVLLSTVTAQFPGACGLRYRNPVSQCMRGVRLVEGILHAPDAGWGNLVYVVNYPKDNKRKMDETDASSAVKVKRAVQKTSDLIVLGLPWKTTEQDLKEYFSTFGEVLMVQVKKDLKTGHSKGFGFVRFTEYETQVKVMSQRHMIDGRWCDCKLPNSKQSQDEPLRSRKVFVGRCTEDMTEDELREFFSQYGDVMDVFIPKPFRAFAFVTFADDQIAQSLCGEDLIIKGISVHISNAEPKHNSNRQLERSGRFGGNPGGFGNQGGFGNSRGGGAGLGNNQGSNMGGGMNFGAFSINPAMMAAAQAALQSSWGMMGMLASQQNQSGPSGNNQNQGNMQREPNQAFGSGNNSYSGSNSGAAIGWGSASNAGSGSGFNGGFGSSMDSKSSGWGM

For `O=C1c2sc(-c3ccc(N4CC[C@@H](F)C4)nc3F)nc2CCN1c1cccnc1` [Compound 1, 2-[2-fluoro-6-[(3R)-3-fluoropyrrolidin-1-yl]-3-pyridyl]-5-(3-pyridyl)-6,7-dihydrothiazolo[5,4-c]pyridin-4-one], on TDP-43 aggregates, the “Displacement on FTLD-TDP type A and B compared to non-demented control” value is “increased displacement”; the “cARG displacement on FTLD-TDP Type A case” value turned out to be 3.3; the “cARG displacement on FTLD-TDP Type B case” value came out at 3.2; the “cARG displacement on non-demented control” value amounted to 1.9.
As to `O=C1c2sc(-c3ccc(N4CCC(CO)CC4)nc3F)nc2CCN1c1cccnc1` [Compound 17, 2-(2-fluoro-6-(4-(hydroxymethyl)piperidin-1-yl)pyridin-3-yl)-5-(pyridin-3-yl)-6,7-dihydrothiazolo[5,4-c]pyridin-4(5H)-one], at TDP-43 aggregates, the “Displacement on FTLD-TDP type A and B compared to non-demented control” value is “increased displacement”; the “cARG displacement on FTLD-TDP Type A case” value came out at 2.9; the “cARG displacement on FTLD-TDP Type B case” value came to 2.6; the “cARG displacement on non-demented control” value is 1.7.
For the compound `[3H]C([3H])(O)C1CCN(c2ccc(-c3nc4c(s3)C(=O)N(c3cccnc3)CC4)c(F)n2)CC1` [[^3H]-Compound 17, 2-(2-fluoro-6-(4-(hydroxymethyl-t2)piperidin-1-yl)pyridin-3-yl)-5-(pyridin-3-yl)-6,7-dihydrothiazolo[5,4-c]pyridin-4(5H)-one], the “Specific binding in FTLD-TDP type A compared to control” value on TDP-43 aggregates was “significantly higher specific binding”. Also, the “Direct binding in AD brain-derived Tau PHF aggregates” value in assay [1] is “No significant binding”.
Turning to `[3H]c1cncc(N2CCc3nc(-c4cc([3H])c(N5CC[C@@H](F)C5)nc4F)sc3C2=O)c1` [[^3H]-Compound 1, tritiated 2-[2-fluoro-6-[(3R)-3-fluoropyrrolidin-1-yl]-3-pyridyl]-5-(3-pyridyl)-6,7-dihydrothiazolo[5,4-c]pyridin-4-one], the “Specific binding in FTLD-TDP type A compared to control” value on TDP-43 aggregates is “significantly higher specific binding”. Moreover, the “Direct binding in AD brain-derived Tau PHF aggregates” value in assay [1] is “No significant binding”.

The record behind these values is patent US20260103474A1, “NOVEL COMPOUNDS FOR THE DIAGNOSIS OF TDP-43 PROTEINOPATHIES” (AC IMMUNE SA, priority 2022, published 2026).
